Experimental data taken from patent US5672584A (priority 1995, dated 1997).
Read-outs that look alike come from different tables or passages of the source. Where a SMILES comes first, the peptide text is derived from it. Where no end group is shown, it is not given here.

Assays:
[1] = human, Caco-2
Caco-2 cell monolayer = conditions: for Papp (apparent permeability coefficient): applied to AP side, flux to BL side of Caco-2 monolayer; for increase in permeability compared to capped hexapeptide Ac-Trp-Ala-Gly-Gly-Asp-Ala-NH2: Caco-2 Papp ratio; for permeation to BL side of the monolayer: AP-to-BL, in the absence or presence of protease inhibitors (bestatin, diprotin, captopril)
[2] = human, whole blood, pH 7.4
[3] = HBSS, pH 7.4, 37° C.
in vitro = conditions: rat, blood, pH 7.4
[4] = rat, whole blood, pH 7.4
[5] = incubated in human blood, pH 7.4, 37° C.

## Ac-WAGGDA-NH2 [Ac-Trp-Ala-Gly-Gly-Asp-Ala-NH2, reference compound]
[1]
  remaining at 3 h: 75.8 ± 4%
Caco-2 cell monolayer
  Papp (apparent permeability coefficient): 2.1±0.5×10^-8 cm/sec.

## Cc1cc(C)c2c(c1)OC(=O)[C@H](C)NC(=O)[C@H](CC(=O)O)NC(=O)CNC(=O)CNC(=O)[C@H](C)NC(=O)[C@H](Cc1c[nH]c3ccccc13)NC(=O)CC2(C)C [1b] (HELM PEPTIDE1{W.A.G.G.D.A}|CHEM1{[Cc1cc(C)c(C(C)(C)CC(=O)[*:1])c(O[*:2])c1]}$PEPTIDE1,CHEM1,1:R1-1:R1|PEPTIDE1,CHEM1,6:R2-1:R2$$$V2.0)
[2]
  half-life: 2.88 h
[3]
  half-life of chemical stability (T1/2): 12.7 h
Caco-2 cell monolayer
  increase in permeability compared to capped hexapeptide Ac-Trp-Ala-Gly-Gly-Asp-Ala-NH2: 5-6 fold
  Papp (apparent permeability coefficient): 1.21±0.36×10^-7 cm/sec.
In vitro
  half-life: 2.88 h

## C[C@@H]1NC(=O)[C@H](Cc2c[nH]c3ccccc23)NC(=O)OCOC(=O)[C@H](C)NC(=O)[C@H](CC(=O)O)NC(=O)CNC(=O)CNC1=O [1a] (HELM PEPTIDE1{W.A.G.G.D.A}|CHEM1{[O=C(OCO[*:2])[*:1]]}$PEPTIDE1,CHEM1,1:R1-1:R1|PEPTIDE1,CHEM1,6:R2-1:R2$$$V2.0)
[4]
  half-life: 1.85 h
[3]
  half-life of chemical stability (T1/2): 3.47 h
[5]
  T1/2 in human blood: 1.65 h
Caco-2 cell monolayer
  increase in permeability compared to capped hexapeptide Ac-Trp-Ala-Gly-Gly-Asp-Ala-NH2: 5-6 fold
  Papp (apparent permeability coefficient): 1.17±0.11×10^-7 cm/sec.

## WAGGDA [Trp-Ala-Gly-Gly-Asp-Ala, reference compound]
[1]
  remaining at 2 h: 0.8 ± 0.1%
Caco-2 cell monolayer
  permeation to BL side of the monolayer: no detectable quantities
Caco-2 cell monolayer; listed as native peptide
  permeation to BL side of the monolayer: totally impermeable
